US20100076047A1, “Amorphous 1-(9H-carbazol-4-yloxy)-3-[[2-(2-methoxyphenoxy)ethyl]amino]-2-propanol phosphate salt” (priority 2007, published 2010)
Where a name gives a salt, the structure may show the parent alone.

How the values were obtained:
[1] = storage stability of the solid amorphous form (XRD); type: physicochemical
Text: Solid amorphous Carvedilol dihydrogen phosphate is provided herein.

[2] = moisture uptake on exposure to air; type: physicochemical

## COc1ccccc1OCCNCC(O)COc1cccc2[nH]c3ccccc3c12 (stereo not shown) [1-(9H-carbazol-4-yloxy)-3-[[2-(2-methoxyphenoxy)ethyl]amino]-2-propanol phosphate salt]
[1]; stored under controlled humidity conditions, no conversion to a crystalline form
  stability on storage: stable
[1]; versus existing crystalline forms
  stability profile compared to the existing crystalline forms: superior stability profile
[2]; after picking up moisture up to 7%
  XRD pattern after moisture uptake: remains identical
[2]; material of low moisture content exposed to air, forming higher hydrates
  moisture picked up when exposed to air: up to 7%
